In general, melting point refers to the temperature of the solid-liquid transition.

Data set [1] concerns B cells in human blood. In words: Inhibition of B cell activation in whole blood measured by CD69 expression. The settings on record: CD69-positive, CD20-positive cells after anti-IgM stimulation, human whole blood, 20 hours, read-out: Human Whole Blood. The class given is cell-based. Summed up:
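Heparinised human whole blood was preincubated with compound (nine-point, three-fold dilutions) for 30 min at 37 °C. It was then stimulated with 50 μg/ml goat F(ab′)2 anti-human IgM for 20 hours. CD20/CD69 staining, red-cell lysis and flow cytometry gave percent CD69-positive cells, from which IC50 values were calculated.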

Take `Cn1nc(-c2cccc(-n3ncc4cc(C(C)(C)C)cc(F)c4c3=O)c2CO)cc(Nc2ccn(C[C@@H](O)CO)n2)c1=O` [I-68, 6-tert-Butyl-2-(3-{5-[1-((R)-2,3-dihydroxy-propyl)-1H-pyrazol-3-ylamino]-1-methyl-6-oxo-1,6-dihydro-pyridazin-3-yl}-2-hydroxymethyl-phenyl)-8-fluoro-2H-phthalazin-1-one]: the melting point was 245 to 250 °C. The IC50 in data set [1] was 61 nM.

Molecule `CCN1CCN(c2ccc(Nc3cc(-c4cccc(-n5ncc6cc(C(C)(C)C)cc(F)c6c5=O)c4CO)nn(C)c3=O)nc2)CC1` [I-69, 6-tert-Butyl-2-(3-{5-[5-(4-ethyl-piperazin-1-yl)-pyridin-2-ylamino]-1-methyl-6-oxo-1,6-dihydro-pyridazin-3-yl}-2-hydroxymethyl-phenyl)-8-fluoro-2H-phthalazin-1-one] had a melting point of 245 to 247 °C. Further, in data set [1], the IC50 came out at 18 nM.

In turn, `Cn1nc(-c2cccc(-n3ncc4cc(C(C)(C)C)cc(F)c4c3=O)c2CO)cc(Nc2ccn(CC(C)(C)O)n2)c1=O` [I-70, 6-tert-Butyl-8-fluoro-2-(2-hydroxymethyl-3-{5-[1-(2-hydroxy-2-methyl-propyl)-1H-pyrazol-3-ylamino]-1-methyl-6-oxo-1,6-dihydro-pyridazin-3-yl}-phenyl)-2H-phthalazin-1-one] yielded a melting point of 165 to 170 °C. For the same molecule, in data set [1], the IC50 stood at 117 nM.

In turn, `Cn1nc(-c2cccc(-n3ncc4cc(C(C)(C)C)cc(F)c4c3=O)c2CO)cc(Nc2ccc(CN3C[C@@H]4C[C@H]3CN4)cn2)c1=O` [I-84, 6-tert-Butyl-2-[3-(5-{5-[(1S,4S)-1-(2,5-diaza-bicyclo[2.2.1]hept-2-yl)methyl]-pyridin-2-ylamino}-1-methyl-6-oxo-1,6-dihydro-pyridazin-3-yl)-2-hydroxymethyl-phenyl]-8-fluoro-2H-phthalazin-1-one] came in with a melting point of more than 250 °C. For the same molecule, in data set [1], the IC50 was found to be 242 nM.

(Values after patent US8481540B2, “Inhibitors of bruton's tyrosine kinase” (Hoffmann-La Roche Inc., priority 2010, dated 2013).)
